The values below come from patent publication US10913721B2, “Crystalline form of aripiprazole” (Noratech Pharmaceuticals, Inc., priority 2016, dated 2021).

Series [1] can be described thus: Comparison test for the dissolution rate of crystalline forms of aripiprazole. The format is physicochemical. As to conditions: 0.25% sodium dodecyl sulfate solution (900 mL), slurry method, 50 rpm, 37° C.±0.5° C.; 15-360 min; compared with hydrate A and the conventional hydrate (FIG. 7). Here is the method:
Sample preparation: Powders of crystalline form N, hydrate A and the conventional hydrate of aripiprazole are respectively sieved through a 100-mesh sieve, and the appropriate amount of sieved material (equivalent to 50 mg of aripiprazole) is taken and measured to determine the dissolution rate of each sample.
Dissolution conditions: 0.25% sodium dodecyl sulfate solution (900 mL): slurry method: 50 rpm; 37° C.±0.5° C.
Sample detection: Samples of 3 ml are respectively taken at 15, 30, 60, 90, 120, 240, and 360 min, and immediately littered through a 0.45 μm microporous membrane, 2 mL of the initial filtrate is discarded, and the drug concentration in the subsequent filtrate is measured.

For series [2] the following is noted: as stated in WO 03/026659; cited from earlier work.

SMILES strings stand for the structures. Entries after “also recorded” stand apart in the source; their conditions may differ.

`O=C1CCc2ccc(OCCCCN3CCN(c4cccc(Cl)c4Cl)CC3)cc2N1` [Crystalline form N, 7-{4-[4-(2,3-dichlorophenyl)-1-piperazinyl]-butoxy}-3,4-dihydroquinolone]: in series [1], the “dissolution rate (release rate)” value was “slower release rate; also recorded: slower dissolution rate”.

Regarding `O=C1CCc2ccc(OCCCCN3CCN(c4cccc(Cl)c4Cl)CC3)cc2N1` [type-I crystals], the hygroscopicity result in series [2] is reported as “significant hygroscopicity”.
